Reference: the NIST ThermoML archive (doi:10.1021/je9004992)
Numbers after ± are expanded uncertainties.

Assay: molar heat capacity at constant pressure
Settings: Liquid, Small sample (50 mg) DSC

CCn1cc[n+](C)c1.F[B-](F)(F)F [1-ethyl-3-methylimidazolium tetrafluoroborate]
molar heat capacity at constant pressure [J/K/mol]
Settings	283.15 K	288.15 K	293.15 K	298.15 K	303.15 K	308.15 K	313.15 K	318.15 K	323.15 K
100 kPa	300.19 ± 4.7	301.67 ± 4.7	303.23 ± 4.7	304.87 ± 4.7	306.58 ± 4.8	308.36 ± 4.8	310.23 ± 4.8	312.17 ± 4.8	314.18 ± 4.9
2000 kPa	300.22 ± 4.7	301.7 ± 4.7	303.26 ± 4.7	304.9 ± 4.7	306.61 ± 4.8	308.4 ± 4.8	310.26 ± 4.8	312.2 ± 4.8	314.21 ± 4.9
4000 kPa	300.24 ± 4.7	301.73 ± 4.7	303.29 ± 4.7	304.93 ± 4.7	306.64 ± 4.8	308.43 ± 4.8	310.29 ± 4.8	312.23 ± 4.8	314.24 ± 4.9
6000 kPa	300.27 ± 4.7	301.76 ± 4.7	303.32 ± 4.7	304.96 ± 4.7	306.67 ± 4.8	308.46 ± 4.8	310.32 ± 4.8	312.26 ± 4.8	314.27 ± 4.9
8000 kPa	300.3 ± 4.7	301.79 ± 4.7	303.35 ± 4.7	304.99 ± 4.7	306.7 ± 4.8	308.49 ± 4.8	310.35 ± 4.8	312.29 ± 4.8	314.3 ± 4.9
10000 kPa	300.33 ± 4.7	301.82 ± 4.7	303.38 ± 4.7	305.02 ± 4.7	306.73 ± 4.8	308.52 ± 4.8	310.38 ± 4.8	312.32 ± 4.8	314.33 ± 4.9
12000 kPa	300.35 ± 4.7	301.85 ± 4.7	303.41 ± 4.7	305.05 ± 4.7	306.77 ± 4.8	308.55 ± 4.8	310.42 ± 4.8	312.35 ± 4.8	314.36 ± 4.9
14000 kPa	300.38 ± 4.7	301.87 ± 4.7	303.44 ± 4.7	305.08 ± 4.7	306.8 ± 4.8	308.59 ± 4.8	310.45 ± 4.8	312.38 ± 4.8	314.39 ± 4.9
20000 kPa	300.46 ± 4.7	301.96 ± 4.7	303.53 ± 4.7	305.18 ± 4.7	306.89 ± 4.8	308.68 ± 4.8	310.54 ± 4.8	312.47 ± 4.8	314.48 ± 4.9
30000 kPa	300.6 ± 4.7	302.1 ± 4.7	303.68 ± 4.7	305.33 ± 4.7	307.05 ± 4.8	308.84 ± 4.8	310.7 ± 4.8	312.63 ± 4.8	314.63 ± 4.9
40000 kPa	300.73 ± 4.7	302.25 ± 4.7	303.83 ± 4.7	305.49 ± 4.7	307.21 ± 4.8	309 ± 4.8	310.86 ± 4.8	312.79 ± 4.8	314.78 ± 4.9
50000 kPa	300.87 ± 4.7	302.39 ± 4.7	303.98 ± 4.7	305.64 ± 4.7	307.37 ± 4.8	309.16 ± 4.8	311.02 ± 4.8	312.94 ± 4.8	314.93 ± 4.9
60000 kPa	301 ± 4.7	302.54 ± 4.7	304.13 ± 4.7	305.8 ± 4.7	307.52 ± 4.8	309.32 ± 4.8	311.17 ± 4.8	313.1 ± 4.8	315.08 ± 4.9

CCCCCCn1cc[n+](C)c1.F[B-](F)(F)F [1-hexyl-3-methylimidazolium tetrafluoroborate]
molar heat capacity at constant pressure [J/K/mol]
Settings	283.15 K	288.15 K	293.15 K	298.15 K	303.15 K	308.15 K	313.15 K	318.15 K	323.15 K
100 kPa	422.77 ± 6.5	425 ± 6.6	427.34 ± 6.6	429.8 ± 6.7	432.36 ± 6.7	435.03 ± 6.7	437.81 ± 6.8	440.7 ± 6.8	443.69 ± 6.9
2000 kPa	422.81 ± 6.5	425.04 ± 6.6	427.38 ± 6.6	429.83 ± 6.7	432.39 ± 6.7	435.06 ± 6.7	437.84 ± 6.8	440.72 ± 6.8	443.72 ± 6.9
4000 kPa	422.85 ± 6.5	425.08 ± 6.6	427.42 ± 6.6	429.87 ± 6.7	432.43 ± 6.7	435.1 ± 6.7	437.87 ± 6.8	440.75 ± 6.8	443.74 ± 6.9
6000 kPa	422.89 ± 6.5	425.12 ± 6.6	427.46 ± 6.6	429.91 ± 6.7	432.47 ± 6.7	435.13 ± 6.7	437.9 ± 6.8	440.78 ± 6.8	443.77 ± 6.9
8000 kPa	422.94 ± 6.5	425.17 ± 6.6	427.5 ± 6.6	429.95 ± 6.7	432.5 ± 6.7	435.17 ± 6.7	437.93 ± 6.8	440.81 ± 6.8	443.8 ± 6.9
10000 kPa	422.98 ± 6.5	425.21 ± 6.6	427.54 ± 6.6	429.99 ± 6.7	432.54 ± 6.7	435.2 ± 6.7	437.97 ± 6.8	440.84 ± 6.8	443.82 ± 6.9
12000 kPa	423.02 ± 6.5	425.25 ± 6.6	427.59 ± 6.6	430.03 ± 6.7	432.58 ± 6.7	435.23 ± 6.7	438 ± 6.8	440.87 ± 6.8	443.85 ± 6.9
14000 kPa	423.07 ± 6.5	425.29 ± 6.6	427.63 ± 6.6	430.07 ± 6.7	432.61 ± 6.7	435.27 ± 6.7	438.03 ± 6.8	440.9 ± 6.8	443.88 ± 6.9
20000 kPa	423.2 ± 6.6	425.42 ± 6.6	427.75 ± 6.6	430.18 ± 6.7	432.72 ± 6.7	435.37 ± 6.7	438.13 ± 6.8	440.99 ± 6.8	443.96 ± 6.9
30000 kPa	423.41 ± 6.6	425.63 ± 6.6	427.95 ± 6.6	430.38 ± 6.7	432.91 ± 6.7	435.55 ± 6.8	438.29 ± 6.8	441.14 ± 6.8	444.09 ± 6.9
40000 kPa	423.63 ± 6.6	425.84 ± 6.6	428.15 ± 6.6	430.57 ± 6.7	433.09 ± 6.7	435.72 ± 6.8	438.45 ± 6.8	441.28 ± 6.8	444.22 ± 6.9
50000 kPa	423.85 ± 6.6	426.05 ± 6.6	428.36 ± 6.6	430.77 ± 6.7	433.28 ± 6.7	435.89 ± 6.8	438.61 ± 6.8	441.43 ± 6.8	444.35 ± 6.9
60000 kPa	424.07 ± 6.6	426.26 ± 6.6	428.56 ± 6.6	430.96 ± 6.7	433.46 ± 6.7	436.07 ± 6.8	438.77 ± 6.8	441.58 ± 6.8	444.49 ± 6.9
